Assay results published in the supplement of paper PMC11451515.

System: P12-Ichikawa
Experiment: cell viability relative to DMSO control; higher = less cytotoxic
Conditions: 48 h
Method in brief: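 Viability, reported as a per-plate percentage of DMSO wells with cell-free wells as background, came from CellTiter-Glo One luminescence. Reading took place after 48 h at 37°C. Before that, NOMO1 or SEM (500 cells/well) or P12-Ichikawa (1000 cells/well) leukemia cells, adapted for at least four passages in each medium, were seeded in 1536-well plates (5 μl) and pin-dosed with library compounds in DMSO, 47 μM to 0.79 nM over 11 threefold points.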

[1] = HPLM + 10% dialyzed FBS, 0.000781 µM
[2] = HPLM + 10% dialyzed FBS, 0.00234 µM
[3] = HPLM + 10% dialyzed FBS, 0.00702 µM
[4] = HPLM + 10% dialyzed FBS, 0.0211 µM
[5] = HPLM + 10% dialyzed FBS, 0.0632 µM
[6] = HPLM + 10% dialyzed FBS, 0.19 µM
[7] = HPLM + 10% dialyzed FBS, 0.569 µM
[8] = HPLM + 10% dialyzed FBS, 1.71 µM
[9] = HPLM + 10% dialyzed FBS, 5.12 µM
[10] = HPLM + 10% dialyzed FBS, 15.4 µM
[11] = HPLM + 10% dialyzed FBS, 46.1 µM
[12] = RPMI 5 mM glucose + 10% FBS, 0.000781 µM
[13] = RPMI 5 mM glucose + 10% FBS, 0.00234 µM
[14] = RPMI 5 mM glucose + 10% FBS, 0.00702 µM
[15] = RPMI 5 mM glucose + 10% FBS, 0.0211 µM
[16] = RPMI 5 mM glucose + 10% FBS, 0.0632 µM
[17] = RPMI 5 mM glucose + 10% FBS, 0.19 µM
[18] = RPMI 5 mM glucose + 10% FBS, 0.569 µM
[19] = RPMI 5 mM glucose + 10% FBS, 1.71 µM
[20] = RPMI 5 mM glucose + 10% FBS, 5.12 µM
[21] = RPMI 5 mM glucose + 10% FBS, 15.4 µM
[22] = RPMI 5 mM glucose + 10% FBS, 46.1 µM
[23] = RPMI 5 mM glucose + 10% dialyzed FBS, 0.000781 µM
[24] = RPMI 5 mM glucose + 10% dialyzed FBS, 0.00234 µM
[25] = RPMI 5 mM glucose + 10% dialyzed FBS, 0.00702 µM
[26] = RPMI 5 mM glucose + 10% dialyzed FBS, 0.0211 µM
[27] = RPMI 5 mM glucose + 10% dialyzed FBS, 0.0632 µM
[28] = RPMI 5 mM glucose + 10% dialyzed FBS, 0.19 µM
[29] = RPMI 5 mM glucose + 10% dialyzed FBS, 0.569 µM
[30] = RPMI 5 mM glucose + 10% dialyzed FBS, 1.71 µM
[31] = RPMI 5 mM glucose + 10% dialyzed FBS, 5.12 µM
[32] = RPMI 5 mM glucose + 10% dialyzed FBS, 15.4 µM
[33] = RPMI 5 mM glucose + 10% dialyzed FBS, 46.1 µM

Row | Compound | cell viability [1] | cell viability [2] | cell viability [3] | cell viability [4] | cell viability [5] | cell viability [6] | cell viability [7] | cell viability [8] | cell viability [9] | cell viability [10] | cell viability [11] | cell viability [12] | cell viability [13] | cell viability [14] | cell viability [15] | cell viability [16] | cell viability [17] | cell viability [18] | cell viability [19] | cell viability [20] | cell viability [21] | cell viability [22] | cell viability [23] | cell viability [24] | cell viability [25] | cell viability [26] | cell viability [27] | cell viability [28] | cell viability [29] | cell viability [30] | cell viability [31] | cell viability [32] | cell viability [33]
1 | OC1=CC=C(C=C1)\C2=C\OC3=C(C=CC(=C3)O)C2=O | 112% | 107% | 105% | 97.2% | 110% | 104% | 102% | 99.2% | 92.7% | 102% | 98.1% | 98.3% | 90.4% | 103% | 99.1% | 100% | 87% | 90.9% | 89.5% | 92.9% | 86.9% | 89.7% | 100% | 96.3% | 95.4% | 99.9% | 97.3% | 96.7% | 95.8% | 98.1% | 93.1% | 90.3% | 88%
2 | NC(=O)c1cnc(N[C@@H]2CCCC[C@@H]2N)nc1Nc1cccc(-n2nccn2)c1 | 111% | 117% | 126% | 124% | 122% | 132% | 136% | 128% | 123% | 133% | 77.6% |  |  |  |  |  |  |  |  |  |  |  |  |  |  |  |  |  |  |  |  |  | 
3 | CC(C)[C@@H](N(CCCN)C(=O)C1=CC=C(C)C=C1)C/2=N/C3=CC(=CC=C3C(=O)N2CC4=CC=CC=C4)Cl | 97.6% | 12% | 10.4% | 8.9% | 8.1% | 8.2% | 5.86% | 7.66% | 5.88% | 7.47% | 8.59% | 96.2% | 12.6% | 10.8% | 11.7% | 9.51% | 12% | 8.85% | 8.68% | 7.23% | 7.78% | 7.67% | 88.8% | 48.5% | 18.6% | 14.5% | 12.8% | 13.4% | 11.1% | 14.6% | 11.3% | 11.3% | 10.9%
4 | CC(N[C@H]1C[C@@H]1c1ccccc1)c1ccc2c(c1)OCCO2 (stereo partly drawn) | 119% | 117% | 121% | 128% | 119% | 118% | 116% | 113% | 107% | 112% | 104% |  |  |  |  |  |  |  |  |  |  |  |  |  |  |  |  |  |  |  |  |  | 
5 | CN1[C@@H]2CC(OC(=O)[C@@H](CO)c3ccccc3)C[C@H]1[C@H]1O[C@H]12 (stereo partly drawn) | 97% | 94.9% | 103% | 103% | 101% | 101% | 101% | 103% | 98.7% | 92.9% | 102% | 98.8% | 100% | 102% | 106% | 107% | 105% | 106% | 110% | 98.8% | 104% | 104% | 94.3% | 97.1% | 93.1% | 95.2% | 99.2% | 96.3% | 93.3% | 95% | 101% | 89.5% | 105%
6 | CC1(C)Cc2c(-c3ccccc3)c(-c3ccc(Cl)cc3)c(CC(=O)O)n2C1 | 120% | 118% | 117% | 122% | 118% | 110% | 107% | 112% | 105% | 103% | 95.6% | 115% | 112% | 118% | 118% | 110% | 107% | 111% | 110% | 97.8% | 99.6% | 83.5% | 106% | 108% | 115% | 102% | 107% | 102% | 106% | 104% | 103% | 98.1% | 86%
7 | CC(C)C(C)/C=C/C(C)C1CCC2C3=CC=C4CC(O)CCC4(C)C3CCC21C (stereo not drawn) | 110% | 105% | 97.8% | 109% | 99.5% | 96.6% | 111% | 94.4% | 106% | 97.8% | 97.3% | 99.1% | 99.4% | 98.3% | 106% | 96.7% | 98.4% | 102% | 97.6% | 93.5% | 94.5% | 92.2% | 91.1% | 94.8% | 102% | 97.1% | 103% | 96.7% | 97.5% | 96.8% | 92.8% | 91% | 89.4%
8 | CCC1(C)CC(=O)NC1=O (stereo not drawn) | 101% | 103% | 104% | 104% | 108% | 116% | 100% | 102% | 94.9% | 96.7% | 94.7% | 99.4% | 105% | 115% | 101% | 111% | 105% | 102% | 99.3% | 106% | 92% | 87.4% | 101% | 101% | 101% | 97.3% | 104% | 104% | 102% | 96.3% | 96.3% | 97.1% | 88.9%
9 | CC(C)OC(=O)OCOP(=O)(CO[C@H](C)Cn1cnc2c(N)ncnc21)OCOC(=O)OC(C)C.O=C(O)C=CC(=O)O | 110% | 120% | 73.1% | 125% | 127% | 125% | 125% | 128% | 129% | 126% | 106% | 105% | 132% | 70.9% | 122% | 124% | 122% | 135% | 129% | 129% | 115% | 4.8% | 97.6% | 109% | 85.9% | 115% | 122% | 124% | 124% | 124% | 128% | 121% | 95.2%
